The target of one series is T1, GC receptor (Homo sapiens, UniProt P47871).
T1 construct: expressed in transfected cells; host or cells: HEK293 cells
Description: GC receptor mediated cAMP production in vitro (HEK293 cells transfected with GC receptor). It counts as cell-based. The note with it: 20 min at 37° C., read-out: GCGR (nM EC50). The source says: The medium was removed, the cells were lysed, and cAMP values were detected referring to the detection method described for the assay kit.

Another series in a line: physchem. The note with it: pH 7.5, Solubility. It counts as physicochemical.

Each structure is given as a SMILES string. Numbered stars: 1 amine (or outer) side, 2 acyl side, 3 side chain; on linkers, the order of the positions; unused ones are H or OH. Square brackets hold non-standard residues; d marks the D form. Side chains are listed from the residue outwards. Peptide text beside a SMILES is read from it. * marks the point of attachment. C18 diacid = O=C(O)CCCCCCCCCCCCCCCCC(=O)*; γGlu = O=C(O)[C@H](CCC(=O)[*:2])N[*:1]; AEEA = NCCOCCOCC(=O)O; Aib = CC(C)(N)C(=O)O
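Throughout, for Solubility: compound added at 2 mg per mL of phosphate buffer, with the dissolved amount determined in the supernatant.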

T1 sequence (P47871 26-477): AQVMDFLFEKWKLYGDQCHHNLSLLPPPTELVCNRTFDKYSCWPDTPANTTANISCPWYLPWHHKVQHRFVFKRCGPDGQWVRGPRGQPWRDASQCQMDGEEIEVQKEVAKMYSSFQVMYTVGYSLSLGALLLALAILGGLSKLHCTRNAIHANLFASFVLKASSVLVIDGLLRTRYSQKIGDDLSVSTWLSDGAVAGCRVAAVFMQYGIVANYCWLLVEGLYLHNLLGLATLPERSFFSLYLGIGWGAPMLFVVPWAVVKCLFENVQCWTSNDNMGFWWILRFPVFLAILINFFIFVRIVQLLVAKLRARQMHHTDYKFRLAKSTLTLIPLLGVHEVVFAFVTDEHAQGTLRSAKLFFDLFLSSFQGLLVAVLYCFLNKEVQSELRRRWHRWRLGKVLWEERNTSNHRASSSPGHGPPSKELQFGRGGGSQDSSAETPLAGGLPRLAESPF

In the case of `CCCCCCCCCCCCCCCC(=O)N[C@@H](CCC(=O)N[C@@H](CCC(=O)NCCCC[C@H](NC(=O)[C@H](CC(=O)O)NC(=O)[C@H](CO)NC(=O)[C@@H](NC(=O)[C@H](Cc1ccccc1)NC(=O)[C@@H](NC(=O)CNC(=O)[C@H](CCC(N)=O)NC(=O)C(C)(C)NC(=O)[C@@H](N)Cc1c[nH]cn1)[C@@H](C)O)[C@@H](C)O)C(=O)N[C@@H](CO)C(=O)N[C@@H](CCCCN)C(=O)N[C@@H](Cc1ccc(O)cc1)C(=O)N[C@@H](CC(C)C)C(=O)N[C@@H](CCC(=O)O)C(=O)N[C@@H](CCC(=O)O)C(=O)N[C@@H](CCCCN)C(=O)N[C@@H](CCCNC(=N)N)C(=O)N[C@@H](C)C(=O)N[C@@H](CCCCN)C(=O)N[C@@H](CCC(=O)O)C(=O)N[C@@H](Cc1ccccc1)C(=O)N[C@H](C(=O)N[C@@H](CCC(=O)O)C(=O)N[C@@H](Cc1c[nH]c2ccccc12)C(=O)N[C@@H](CC(C)C)C(=O)N[C@@H](CCC(=O)O)C(=O)N[C@@H](C)C(=O)NCC(=O)NCC(=O)N1CCC[C@H]1C(=O)N[C@@H](CO)C(=O)N[C@@H](CO)C(=O)NCC(N)=O)[C@@H](C)CC)C(=O)O)C(=O)O` [Compound 11] (HELM PEPTIDE1{H.[Aib].Q.G.T.F.T.S.D.K.S.K.Y.L.E.E.K.R.A.K.E.F.I.E.W.L.E.A.G.G.P.S.S.G.[am]}|PEPTIDE2{[CCCCCCCCCCCCCCCC(=O)[*:2]].[gGlu].[gGlu]}$PEPTIDE1,PEPTIDE2,10:R3-3:R2$$$V2.0; N-terminus assumed), the EC50 on GC receptor was found to be 1.73 nM.
Same read-out and setting: in the case of `CCCCCCCCCCCCCCCC(=O)N[C@@H](CCC(=O)N[C@@H](CCC(=O)NCCCC[C@H](NC(=O)[C@H](C)NC(=O)[C@H](C)NC(=O)[C@H](CCCNC(=N)N)NC(=O)[C@H](CCC(=O)O)NC(=O)[C@H](CC(=O)O)NC(=O)[C@H](CC(C)C)NC(=O)[C@H](Cc1ccc(O)cc1)NC(=O)[C@H](CCCCN)NC(=O)[C@H](CO)NC(=O)[C@H](Cc1ccc(O)cc1)NC(=O)[C@H](CC(=O)O)NC(=O)[C@H](CO)NC(=O)[C@@H](NC(=O)[C@H](Cc1ccccc1)NC(=O)[C@@H](NC(=O)CNC(=O)[C@H](CCC(N)=O)NC(=O)C(C)(C)NC(=O)[C@@H](N)Cc1c[nH]cn1)[C@@H](C)O)[C@@H](C)O)C(=O)N[C@@H](CCC(=O)O)C(=O)N[C@@H](Cc1ccccc1)C(=O)N[C@H](C(=O)N[C@@H](C)C(=O)N[C@@H](Cc1c[nH]c2ccccc12)C(=O)N[C@@H](CC(C)C)C(=O)N[C@@H](CCC(=O)O)C(=O)N[C@@H](C)C(=O)NCC(=O)NCC(=O)N1CCC[C@H]1C(=O)N[C@@H](CO)C(=O)N[C@@H](CO)C(=O)NCC(N)=O)C(C)C)C(=O)O)C(=O)O` [Compound 15] (HELM PEPTIDE1{H.[Aib].Q.G.T.F.T.S.D.Y.S.K.Y.L.D.E.R.A.A.K.E.F.V.A.W.L.E.A.G.G.P.S.S.G.[am]}|PEPTIDE2{[CCCCCCCCCCCCCCCC(=O)[*:2]].[gGlu].[gGlu]}$PEPTIDE1,PEPTIDE2,20:R3-3:R2$$$V2.0; N-terminus assumed) it was 0.148 nM.
Same read-out and setting: in the case of `CC(C)C[C@H](NC(=O)[C@H](Cc1c[nH]c2ccccc12)NC(=O)[C@H](C)NC(=O)[C@@H](NC(=O)[C@H](Cc1ccccc1)NC(=O)[C@H](CCC(=O)O)NC(=O)[C@H](CCCCN)NC(=O)[C@H](C)NC(=O)[C@H](C)NC(=O)[C@H](CCCNC(=N)N)NC(=O)[C@H](CCC(=O)O)NC(=O)[C@H](CCC(=O)O)NC(=O)[C@H](CC(C)C)NC(=O)[C@H](Cc1ccc(O)cc1)NC(=O)[C@H](CCCCN)NC(=O)[C@H](CO)NC(=O)[C@H](CCCCNC(=O)COCCOCCNC(=O)COCCOCCNC(=O)CC[C@H](NC(=O)CCCCCCCCCCCCCCCCC(=O)O)C(=O)O)NC(=O)[C@H](CC(=O)O)NC(=O)[C@H](CO)NC(=O)[C@@H](NC(=O)[C@H](Cc1ccccc1)NC(=O)[C@@H](NC(=O)CNC(=O)[C@H](CCC(N)=O)NC(=O)C(C)(C)NC(=O)[C@@H](N)Cc1c[nH]cn1)[C@@H](C)O)[C@@H](C)O)C(C)C)C(=O)N[C@@H](CCCCN)C(=O)N[C@@H](CCC(=O)O)C(=O)NCC(=O)NCC(=O)N1CCC[C@H]1C(=O)N[C@@H](CO)C(=O)N[C@@H](CO)C(=O)NCC(N)=O` [Compound 17] (H-H[Aib]QGTFTSDK([AEEA-AEEA-γGlu-C18 diacid])SKYLEERAAKEFVAWLKEGGPSSG-NH2; N-terminus assumed) it was 0.486 nM; in that of `CCCCCCCCCCCCCCCC(=O)N[C@@H](CCC(=O)N[C@@H](CCC(=O)NCCCC[C@H](NC(=O)[C@H](CC(=O)O)NC(=O)[C@H](CO)NC(=O)[C@@H](NC(=O)[C@H](Cc1ccccc1)NC(=O)[C@@H](NC(=O)CNC(=O)[C@H](CCC(N)=O)NC(=O)C(C)(C)NC(=O)[C@@H](N)Cc1c[nH]cn1)[C@@H](C)O)[C@@H](C)O)C(=O)N[C@@H](CO)C(=O)N[C@@H](CCCCN)C(=O)N[C@@H](Cc1ccc(O)cc1)C(=O)N[C@@H](CC(C)C)C(=O)N[C@@H](CCC(=O)O)C(=O)N[C@@H](CO)C(=O)N[C@@H](CCC(=O)O)C(=O)N[C@@H](CCCNC(=N)N)C(=O)N[C@@H](C)C(=O)N[C@@H](CCCCN)C(=O)N[C@@H](CCC(=O)O)C(=O)N[C@@H](Cc1ccccc1)C(=O)N[C@H](C(=O)N[C@@H](CCC(=O)O)C(=O)N[C@@H](Cc1c[nH]c2ccccc12)C(=O)N[C@@H](CC(C)C)C(=O)N[C@H](C(=O)N[C@@H](CCCCN)C(=O)N[C@@H](CCC(=O)O)C(=O)NCC(=O)NCC(=O)N1CCC[C@H]1C(=O)N[C@@H](CO)C(=O)N[C@@H](CO)C(=O)NCC(N)=O)C(C)C)C(C)C)C(=O)O)C(=O)O` [Compound 19] (HELM PEPTIDE1{H.[Aib].Q.G.T.F.T.S.D.K.S.K.Y.L.E.S.E.R.A.K.E.F.V.E.W.L.V.K.E.G.G.P.S.S.G.[am]}|PEPTIDE2{[CCCCCCCCCCCCCCCC(=O)[*:2]].[gGlu].[gGlu]}$PEPTIDE1,PEPTIDE2,10:R3-3:R2$$$V2.0; N-terminus assumed), 6.25 nM; in that of `CC[C@H](C)[C@H](NC(=O)[C@H](Cc1ccccc1)NC(=O)[C@H](CCC(=O)O)NC(=O)[C@H](CCCCN)NC(=O)[C@H](C)NC(=O)[C@H](CCCNC(=N)N)NC(=O)[C@H](CCCCN)NC(=O)[C@H](CCC(=O)O)NC(=O)[C@H](CC(=O)O)NC(=O)[C@H](CC(C)C)NC(=O)[C@H](Cc1ccc(O)cc1)NC(=O)[C@H](CCCCN)NC(=O)[C@H](CO)NC(=O)[C@H](CCCCNC(=O)COCCOCCNC(=O)COCCOCCNC(=O)CC[C@H](NC(=O)CCCCCCCCCCCCCCCCC(=O)O)C(=O)O)NC(=O)[C@H](CC(=O)O)NC(=O)[C@H](CO)NC(=O)[C@@H](NC(=O)[C@H](Cc1ccccc1)NC(=O)[C@@H](NC(=O)CNC(=O)[C@H](CCC(N)=O)NC(=O)C(C)(C)NC(=O)[C@@H](N)Cc1c[nH]cn1)[C@@H](C)O)[C@@H](C)O)C(=O)N[C@@H](CCC(=O)O)C(=O)N[C@@H](Cc1c[nH]c2ccccc12)C(=O)N[C@@H](CC(C)C)C(=O)N[C@@H](CCC(=O)O)C(=O)N[C@@H](C)C(=O)NCC(=O)NCC(=O)N1CCC[C@H]1C(=O)N[C@@H](CO)C(=O)N[C@@H](CO)C(=O)NCC(N)=O` [Compound 23] (H-H[Aib]QGTFTSDK([AEEA-AEEA-γGlu-C18 diacid])SKYLDEKRAKEFIEWLEAGGPSSG-NH2; N-terminus assumed), 0.329 nM.
Regarding `CC(C)C[C@H](NC(=O)[C@H](Cc1c[nH]c2ccccc12)NC(=O)[C@H](C)NC(=O)[C@@H](NC(=O)[C@H](Cc1ccccc1)NC(=O)[C@H](CCC(=O)O)NC(=O)[C@H](CCCCN)NC(=O)[C@H](C)NC(=O)[C@H](C)NC(=O)[C@H](CCCNC(=N)N)NC(=O)[C@H](CCC(=O)O)NC(=O)[C@H](CC(=O)O)NC(=O)[C@H](CC(C)C)NC(=O)[C@H](Cc1ccc(O)cc1)NC(=O)[C@H](CCCCN)NC(=O)[C@H](CO)NC(=O)[C@H](CCCCNC(=O)COCCOCCNC(=O)COCCOCCNC(=O)CC[C@H](NC(=O)CCCCCCCCCCCCCCCCC(=O)O)C(=O)O)NC(=O)[C@H](CC(=O)O)NC(=O)[C@H](CO)NC(=O)[C@@H](NC(=O)[C@H](Cc1ccccc1)NC(=O)[C@@H](NC(=O)CNC(=O)[C@H](CCC(N)=O)NC(=O)C(C)(C)NC(=O)[C@@H](N)Cc1c[nH]cn1)[C@@H](C)O)[C@@H](C)O)C(C)C)C(=O)N[C@@H](CCC(=O)O)C(=O)N[C@@H](C)C(=O)NCC(=O)NCC(=O)N1CCC[C@H]1C(=O)N[C@@H](CO)C(=O)N[C@@H](CO)C(=O)NCC(N)=O` [Compound 24] (H-H[Aib]QGTFTSDK([AEEA-AEEA-γGlu-C18 diacid])SKYLDERAAKEFVAWLEAGGPSSG-NH2), the solubility in the series “physchem” (pH 7.5, 10 mM phosphate buffer) was > 2 mg/mL; in the series “physchem” (pH 7.5, 20 mM phosphate buffer), > 2 mg/mL.
Consider `CC(C)C[C@H](NC(=O)[C@H](Cc1c[nH]c2ccccc12)NC(=O)[C@H](CCC(=O)O)NC(=O)[C@@H](NC(=O)[C@H](Cc1ccccc1)NC(=O)[C@H](CCC(=O)O)NC(=O)[C@H](CCCCNC(=O)COCCOCCNC(=O)COCCOCCNC(=O)CC[C@H](NC(=O)CCCCCCCCCCCCCCCCC(=O)O)C(=O)O)NC(=O)[C@H](C)NC(=O)[C@H](C)NC(=O)[C@H](CCCNC(=N)N)NC(=O)[C@H](CCC(=O)O)NC(=O)[C@H](CCC(=O)O)NC(=O)[C@H](CC(C)C)NC(=O)[C@H](Cc1ccc(O)cc1)NC(=O)[C@H](CCCCN)NC(=O)[C@H](CO)NC(=O)[C@H](Cc1ccc(O)cc1)NC(=O)[C@H](CC(=O)O)NC(=O)[C@H](CO)NC(=O)[C@@H](NC(=O)[C@H](Cc1ccccc1)NC(=O)[C@@H](NC(=O)CNC(=O)[C@H](CCC(N)=O)NC(=O)C(C)(C)NC(=O)[C@@H](N)Cc1c[nH]cn1)[C@@H](C)O)[C@@H](C)O)C(C)C)C(=O)N[C@@H](CCC(=O)O)C(=O)NCC(=O)NCC(=O)N1CCC[C@H]1C(=O)N[C@@H](CO)C(=O)N[C@@H](CO)C(=O)NCC(N)=O` [Compound 32] (H-H[Aib]QGTFTSDYSKYLEERAAK([AEEA-AEEA-γGlu-C18 diacid])EFVEWLEGGPSSG-NH2; N-terminus assumed), for which the EC50 on GC receptor amounted to 0.077 nM.

These data come from patent publication US12257287B2, “Glucagon-derived peptide and use thereof” (Tianjin Institute of Pharmaceutical Research Co., Ltd., priority 2018, dated 2025).
